Assay [1] has as its target T1, DDR1 (Homo sapiens, UniProt Q08345). As to the kind of experiment: DDR1 cell based assay (PathHunter U2OS DDR1 assay). Set-up: host or cells: U2OS-DDR1 (PathHunter). The settings on record: U2OS-DDR1 cells, bovine Type II Collagen 20 μg/ml. Summed up:
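Receptor activation measured by enzyme-fragment complementation luminescence in engineered U2OS cells. Compound added 30 min before overnight challenge with 20 μg/ml bovine collagen II; data scaled between vehicle and collagen-stimulated controls, IC50 derived by four-parameter variable-slope fitting.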

Another assay concerns the target T2, DDR2 (Homo sapiens, UniProt Q16832).
T2 sequence (Q16832 22-855): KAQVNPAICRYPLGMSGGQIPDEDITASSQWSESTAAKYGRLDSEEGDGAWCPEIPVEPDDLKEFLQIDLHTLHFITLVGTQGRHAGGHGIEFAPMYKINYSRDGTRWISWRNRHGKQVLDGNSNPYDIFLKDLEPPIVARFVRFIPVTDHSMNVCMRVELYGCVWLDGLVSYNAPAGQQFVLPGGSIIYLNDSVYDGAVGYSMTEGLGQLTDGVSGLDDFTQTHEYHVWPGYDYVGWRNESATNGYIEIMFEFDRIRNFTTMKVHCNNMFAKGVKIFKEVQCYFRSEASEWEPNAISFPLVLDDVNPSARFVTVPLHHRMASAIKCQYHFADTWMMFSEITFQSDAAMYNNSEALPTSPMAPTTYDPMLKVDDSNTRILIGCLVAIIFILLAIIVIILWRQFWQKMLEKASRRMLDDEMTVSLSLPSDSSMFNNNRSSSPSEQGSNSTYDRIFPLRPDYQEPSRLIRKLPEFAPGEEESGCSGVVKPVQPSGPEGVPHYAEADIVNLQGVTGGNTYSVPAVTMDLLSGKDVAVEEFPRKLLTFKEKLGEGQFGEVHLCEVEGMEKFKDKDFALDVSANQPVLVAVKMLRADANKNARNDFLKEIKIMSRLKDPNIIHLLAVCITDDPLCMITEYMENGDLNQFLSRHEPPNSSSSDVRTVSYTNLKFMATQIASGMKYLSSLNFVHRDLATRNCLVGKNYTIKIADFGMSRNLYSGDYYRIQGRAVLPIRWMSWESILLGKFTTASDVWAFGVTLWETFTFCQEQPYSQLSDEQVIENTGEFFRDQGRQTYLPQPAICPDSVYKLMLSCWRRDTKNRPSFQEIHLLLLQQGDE
The experiment in a line: DDR2 binding assay (LanthaScreen Europium Kinase Binding assay). Set-up: purchased Life Technologies. Particulars: binding assay, 5 nM DDR2, 10 nM Kinase Tracer 178; Ki from IC50 by Cheng-Prusoff; read-out: Ki DDR2. Summed up:
(§1)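 TR-FRET tracer-displacement format: 665/615 nm emission ratio (340 nm excitation) gave IC50 by 4-parameter fit, then Ki via Cheng-Prusoff. Each kinase at 5 nM with 2 nM Eu-anti-GST antibody and Tracer 178 (DDR1 20 nM, DDR2 10 nM), 1 h, room temperature, HEPES pH 7.5 buffer.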
Background: TR-FRET usually uses a lanthanide donor and a delayed reading to cut background.

Assay [2] concerns the target T1, DDR1. As to the kind of experiment: DDR1 binding assay (LanthaScreen Europium Kinase Binding assay). Set-up: purchased Carna Biosciences. The settings on record: binding assay, 5 nM DDR1, 20 nM Kinase Tracer 178; Ki from IC50 by Cheng-Prusoff; read-out: Ki DDR1. The method, boiled down: as §1

T1 sequence (Q08345 19-913): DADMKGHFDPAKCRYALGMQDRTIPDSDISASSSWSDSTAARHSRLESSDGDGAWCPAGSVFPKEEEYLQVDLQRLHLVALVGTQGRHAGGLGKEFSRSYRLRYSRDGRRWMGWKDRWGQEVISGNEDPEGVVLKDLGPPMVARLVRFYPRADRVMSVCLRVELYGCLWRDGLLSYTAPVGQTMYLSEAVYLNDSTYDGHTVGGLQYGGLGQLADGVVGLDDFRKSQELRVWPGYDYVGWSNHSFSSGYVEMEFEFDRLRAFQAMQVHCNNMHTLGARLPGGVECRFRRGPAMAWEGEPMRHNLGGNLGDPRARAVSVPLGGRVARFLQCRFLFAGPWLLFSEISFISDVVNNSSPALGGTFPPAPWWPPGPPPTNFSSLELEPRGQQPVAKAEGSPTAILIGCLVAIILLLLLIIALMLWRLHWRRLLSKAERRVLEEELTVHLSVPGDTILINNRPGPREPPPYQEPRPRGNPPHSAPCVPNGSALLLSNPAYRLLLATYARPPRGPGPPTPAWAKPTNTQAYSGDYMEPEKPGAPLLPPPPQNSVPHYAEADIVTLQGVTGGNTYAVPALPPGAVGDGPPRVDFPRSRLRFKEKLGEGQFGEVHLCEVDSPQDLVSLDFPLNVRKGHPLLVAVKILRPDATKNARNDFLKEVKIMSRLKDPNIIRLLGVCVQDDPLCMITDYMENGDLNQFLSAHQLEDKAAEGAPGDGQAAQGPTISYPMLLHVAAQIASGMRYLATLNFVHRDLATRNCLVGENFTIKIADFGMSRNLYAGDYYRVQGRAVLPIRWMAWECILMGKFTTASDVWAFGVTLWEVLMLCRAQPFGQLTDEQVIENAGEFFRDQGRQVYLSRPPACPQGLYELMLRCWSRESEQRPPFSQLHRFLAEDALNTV

One may read the IC50 as the concentration needed to halve the response being measured. The term Ki denotes a dissociation constant, usually derived from enzyme kinetics or from competition with a known ligand. For the compound `CN(C)Cc1cc(NC(=O)c2csc3c2CCN(C(=O)c2cnc4ccccn24)C3)cc(C(F)(F)F)c1` [Example 19, N-(3-((dimethylamino)methyl)-5-(trifluoromethyl)phenyl)-6-(imidazo[1,2-a]pyridine-3-carbonyl)-4,5,6,7-tetrahydrothieno[2,3-c]pyridine-3-carboxamide], the IC50 against DDR1 [1] is below 25 nM. Further, the inhibitory constant (Ki) at DDR2 and on DDR1 [2] was below 25 nM each time.

Take `CC(=O)N1CCN(Cc2cc(NC(=O)c3csc4c3CCN(C(=O)c3cnc5ccccn35)C4)cc(C(F)(F)F)c2)CC1` [Example 58, N-(3-((4-acetylpiperazin-1-yl)methyl)-5-(trifluoromethyl)phenyl)-6-(imidazo[1,2-a]pyridine-3-carbonyl)-4,5,6,7-tetrahydrothieno[2,3-c]pyridine-3-carboxamide]: the IC50 against DDR1 [1] lay within 25 to 50 nM. In addition, the Ki at DDR2 and on DDR1 [2] was below 25 nM throughout.

On DDR1 [1], `O=C(Nc1ccc(CN2CCCC2)c(C(F)(F)F)c1)c1csc2c1CCN(C(=O)c1cnc3ccccn13)C2` [Example 22, 6-(imidazo[1,2-a]pyridine-3-carbonyl)-N-(4-(pyrrolidin-1-ylmethyl)-3-(trifluoromethyl)phenyl)-4,5,6,7-tetrahydrothieno[2,3-c]pyridine-3-carboxamide] registered a concentration for half-maximal inhibition (IC50) of 50 to 80 nM. For the same compound, the inhibitory constant (Ki) on DDR2 and at DDR1 [2] was below 25 nM each time.

Regarding `CC(C)(C)c1cc(NC(=O)c2csc3c2CCN(C(=O)c2cnc4ccccn24)C3)no1` [Example 33, N-(5-(tert-butyl)isoxazol-3-yl)-6-(imidazo[1,2-a]pyridine-3-carbonyl)-4,5,6,7-tetrahydrothieno[2,3-c]pyridine-3-carboxamide], the 50% inhibitory concentration (IC50) at DDR1 [1] lay within 25 to 50 nM. Further, the Ki at DDR2 and at DDR1 [2] was below 25 nM in each case.

Consider `O=C(Nc1cc(C(F)(F)F)ncn1)c1csc2c1CCN(C(=O)c1cnc3ccccn13)C2` [Example 21, 6-(imidazo[1,2-a]pyridine-3-carbonyl)-N-(6-(trifluoromethyl)pyrimidin-4-yl)-4,5,6,7-tetrahydrothieno[2,3-c]pyridine-3-carboxamide], for which the concentration for half-maximal inhibition (IC50) on DDR1 [1] fell in the range of 25 to 50 nM. Further, the inhibitory constant (Ki) on DDR2 and at DDR1 [2] was below 25 nM each time.

For `O=C(Nc1cc(N2CCOCC2)cc(C(F)(F)F)c1)c1csc2c1CCN(C(=O)c1cnn3ccncc13)C2` [Example 182, N-(3-morpholino-5-(trifluoromethyl)phenyl)-6-(pyrazolo[1,5-a]pyrazine-3-carbonyl)-4,5,6,7-tetrahydrothieno[2,3-c]pyridine-3-carboxamide], the half-maximal inhibitory concentration (IC50) against DDR1 [1] was below 25 nM. In addition, the inhibition constant Ki on DDR2 and on DDR1 [2] was below 25 nM throughout.

The compound `Cc1n[nH]c2ncc(CN3CCc4c(C(=O)Nc5cc(OCCN6CCCC6)cc(C(F)(F)F)c5)csc4C3)cc12` [Example 163, 6-[(3-methyl-1H-pyrazolo[3,4-b]pyridin-5-yl)methyl]-N-[3-(2-pyrrolidin-1-ylethoxy)-5-(trifluoromethyl)phenyl]-5,7-dihydro-4H-thieno[2,3-c]pyridine-3-carboxamide] displayed a half-inhibitory concentration (IC50) on DDR1 [1] below 25 nM. Besides, the inhibition constant Ki on DDR2 and at DDR1 [2] was below 25 nM in each case.

`Cc1ccc2ncc(C(=O)N3CCc4c(C(=O)Nc5cc(C(C)(C)C)nn5C)csc4C3)n2c1` [Example 80, N-(3-(tert-butyl)-1-methyl-1H-pyrazol-5-yl)-6-(6-methylimidazo[1,2-a]pyridine-3-carbonyl)-4,5,6,7-tetrahydrothieno[2,3-c]pyridine-3-carboxamide] displayed an IC50 against DDR1 [1] of 25 to 50 nM. Besides, the inhibitory constant (Ki) on DDR2 and on DDR1 [2] was below 25 nM in each case.

With `CC(C)(C)c1cc(NC(=O)c2csc3c2CCN(C(=O)c2cnc4ccccn24)C3)n(Cc2ccccc2)n1` [Example 41, N-(1-benzyl-3-(tert-butyl)-1H-pyrazol-5-yl)-6-(imidazo[1,2-a]pyridine-3-carbonyl)-4,5,6,7-tetrahydrothieno[2,3-c]pyridine-3-carboxamide], on DDR1 [1], the IC50 is 25 to 50 nM. For the same compound, the inhibitory constant (Ki) on DDR2 and at DDR1 [2] was below 25 nM each time.

For the compound `CC(C)(C)c1coc(NC(=O)c2csc3c2CCN(C(=O)c2cnc4ccccn24)C3)n1` [Example 47, N-(4-(tert-butyl)oxazol-2-yl)-6-(imidazo[1,2-a]pyridine-3-carbonyl)-4,5,6,7-tetrahydrothieno[2,3-c]pyridine-3-carboxamide], the IC50 at DDR1 [1] fell in the range of 25 to 50 nM. The inhibitory constant (Ki) on DDR2 and at DDR1 [2] was below 25 nM throughout.

Take `CCC(C)(C)c1cc(NC(=O)c2csc3c2CCN(C(=O)c2cnn4ccncc24)C3)on1` [Example 179, N-(3-(tert-pentyl)isoxazol-5-yl)-6-(pyrazolo[1,5-a]pyrazine-3-carbonyl)-4,5,6,7-tetrahydrothieno[2,3-c]pyridine-3-carboxamide]: on DDR1 [1], the IC50 lay in the range of 50 to 80 nM. The Ki on DDR2 and at DDR1 [2] was below 25 nM each time.

Consider `COCCOc1ccn2c(C(=O)N3CCc4c(C(=O)Nc5cccc(C(F)(F)F)c5)csc4C3)cnc2c1` [Example 138, 6-(7-(2-methoxyethoxy)imidazo[1,2-a]pyridine-3-carbonyl)-N-(3-(trifluoromethyl)phenyl)-4,5,6,7-tetrahydrothieno[2,3-c]pyridine-3-carboxamide], for which the half-maximal inhibitory concentration (IC50) on DDR1 [1] is below 25 nM. Moreover, the Ki at DDR2 and at DDR1 [2] was below 25 nM in each case.

Regarding `CN1CCC(Oc2cc(NC(=O)c3csc4c3CCN(C(=O)c3cnc5ccccn35)C4)cc(C(F)(F)F)c2)C1` (stereo not drawn) [Example 63, 6-(imidazo[1,2-a]pyridine-3-carbonyl)-N-[3-(1-methylpyrrolidin-3-yl)oxy-5-(trifluoromethyl)phenyl]-5,7-dihydro-4H-thieno[2,3-c]pyridine-3-carboxamide], the concentration for half-maximal inhibition (IC50) on DDR1 [1] lay within 50 to 80 nM. Also, the inhibition constant (Ki) on DDR2 and on DDR1 [2] was below 25 nM each time.

At DDR1 [1], `Cc1n[nH]c2ncc(CN3CCc4c(C(=O)Nc5cc(C(C)(C)C)no5)csc4C3)cc12` [Example 147, N-(3-(tert-butyl)isoxazol-5-yl)-6-((3-methyl-1H-pyrazolo[3,4-b]pyridin-5-yl)methyl)-4,5,6,7-tetrahydrothieno[2,3-c]pyridine-3-carboxamide] registered an IC50 below 25 nM. Also, the Ki on DDR2 and on DDR1 [2] was below 25 nM in each case.

On to `O=C(Nc1cc(CN2CC3CC2CO3)cc(C(F)(F)F)c1)c1csc2c1CCN(C(=O)c1cnc3ccccn13)C2` (stereo not drawn) [Example 50, N-(3-((2-oxa-5-azabicyclo[2.2.1]heptan-5-yl)methyl)-5-(trifluoromethyl)phenyl)-6-(imidazo[1,2-a]pyridine-3-carbonyl)-4,5,6,7-tetrahydrothieno[2,3-c]pyridine-3-carboxamide], for which the IC50 against DDR1 [1] was in the range of 25 to 50 nM. The inhibition constant Ki on DDR2 and at DDR1 [2] was below 25 nM throughout.

As to `O=C(Nc1cc(CN2CCC(F)C2)cc(C(F)(F)F)c1)c1csc2c1CCN(C(=O)c1cnc3ccccn13)C2` (stereo not drawn) [Example 51, N-(3-((3-fluoropyrrolidin-1-yl)methyl)-5-(trifluoromethyl)phenyl)-6-(imidazo[1,2-a]pyridine-3-carbonyl)-4,5,6,7-tetrahydrothieno[2,3-c]pyridine-3-carboxamide], the concentration for half-maximal inhibition (IC50) against DDR1 [1] lay in the range of 25 to 50 nM. The Ki on DDR2 and at DDR1 [2] was below 25 nM each time.

Regarding `O=C(Nc1ccc(OCC2COC2)c(C(F)(F)F)c1)c1csc2c1CCN(C(=O)c1cnc3ccccn13)C2` [Example 14, 6-(imidazo[1,2-a]pyridine-3-carbonyl)-N-(4-(oxetan-3-ylmethoxy)-3-(trifluoromethyl)phenyl)-4,5,6,7-tetrahydrothieno[2,3-c]pyridine-3-carboxamide], the half-maximal inhibitory concentration (IC50) against DDR1 [1] was below 25 nM. Moreover, the Ki on DDR2 and at DDR1 [2] was below 25 nM each time.

For the origin of these results see US20240391936A1, “TETRAHYDROTHIENO PYRIDINE DERIVATIVES AS DDRS INHIBITORS” (CHIESI FARMACEUTICI S.P.A., priority 2021, published 2024).
